In patent US20260306460A1, “COMPOSITION FOR REMOVING AND INHIBITING SENESCENT CELLS, AND USES THEREOF” (LIFECEUTIX CO., LTD., priority 2023, published 2026):

Experiments:
[1] = tested on: naturally aged C57BL6J mice; format: in vivo, mouse; conditions: mouse, in vivo
[2] = tested on: carbon tetrachloride-induced liver fibrosis mice; assay: Carbon tetrachloride-induced liver fibrosis mice, Example 31, Table 57; format: in vivo, mouse; conditions: CCl4-induced liver fibrosis mice, untreated = 100%
Description: (§1) The control group was administered only the solution in the same volume. After the end of drug administration, the method described in each example below was performed. Liver, kidney, skin, knee joint, heart, and femur tissues were collected from mice in which natural aging was induced in the same manner as in Examples 7-2 and 7-6 of WO2023-085787 A1. Lung tissues were collected from mice in which pulmonary fibrosis was induced using the same method as in Example 24-1. Liver tissues were collected from mice in which hepatic fibrosis was induced using the same method as in Example 26, and total RNA was extracted. qRT-PCR was performed and analyzed using the synthesized cDNA. […] The mRNA amounts of p16, MMP3, and IL6 after natural aging was induced were calculated as 100% and compared with the mRNA amounts of p16, MMP3, and IL6 after treatment with the test compound. In addition, an open field test for the analysis of aging-related frailty, agtr1a mRNA analysis for kidney damage and disease evaluation, col1a1 and SDF1 mRNA analysis for skin aging evaluation such as wrinkles/loss of elasticity/hyperpigmentation, col2a1 mRNA analysis for evaluating joint aging such as osteoarthritis, sur2a mRNA analysis for evaluating cardiac aging such as decreased cardiac load resistance, ctsk mRNA analysis for evaluating bone diseases due to aging such as osteoporosis, muscle tissue weight for analyzing sarcopenia, fat tissue weight for analyzing lipoatrophy, and cataract incidence analysis were performed in mice. For cataract incidence analysis, the drug was administered twice a week under the conditions specified above, and biweekly examinations were conducted until death.

[3] = tested on: naturally aged mice; assay: Anti-aging evaluation in naturally aged mice, Example 31, Table 55; format: in vivo, mouse; conditions: for Femur Ctsk mRNA / Kidney Agtr1a mRNA / Liver IL6 mRNA / Liver MMP3 mRNA / Liver p16 mRNA / Open Field Test Time in Center: untreated = 100%; for Heart Sur2a mRNA / Joint Col2a1 mRNA / Skin Col1a1 mRNA / Skin SDF1 mRNA: untreated = 1.0; for Muscle Mass: untreated 0.64 g; for Fat Mass: untreated 0.82 g; for Cataract incidence: untreated 83%;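 on all read-outs here: Vehicle-dosed control mice received solution alone at matching volume, values compare test-compound-treated aged mice against that control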
Description: After the end of drug administration, the method described in each example below was performed. […] The mRNA amounts of p16, MMP3, and IL6 after natural aging was induced were calculated as 100% and compared with the mRNA amounts of p16, MMP3, and IL6 after treatment with the test compound. In addition, an open field test for the analysis of aging-related frailty, agtr1a mRNA analysis for kidney damage and disease evaluation, col1a1 and SDF1 mRNA analysis for skin aging evaluation such as wrinkles/loss of elasticity/hyperpigmentation, col2a1 mRNA analysis for evaluating joint aging such as osteoarthritis, sur2a mRNA analysis for evaluating cardiac aging such as decreased cardiac load resistance, ctsk mRNA analysis for evaluating bone diseases due to aging such as osteoporosis, muscle tissue weight for analyzing sarcopenia, fat tissue weight for analyzing lipoatrophy, and cataract incidence analysis were performed in mice. For cataract incidence analysis, the drug was administered twice a week under the conditions specified above, and biweekly examinations were conducted until death.

[4] = tested on: senescent A549 cells; assay: Viability of senescent A549 cells (CellTiter-Glo), Example 18, Table 15; conditions: Homo sapiens, A549, read-out: Survival (%)
Description: Senescence-induced cancer cells treated with doxorubicin were treated with the test compound at designated concentrations, and cell viability was measured using the CellTiter-Glo Luminescent Cell Viability Assay (Promega).

[5] = tested on: senescent cells; assay: Viability of senescent cells (CellTiter-Glo), Example 17, Table 13; conditions: Homo sapiens, read-out: Survival (%)
Description: Cells induced to undergo senescence by doxorubicin treatment were treated with test compound at designated concentrations and measured using the CellTiter-Glo Luminescent Cell Viability Assay (Promega).

[6] = tested on: bleomycin-induced pulmonary fibrosis mice; assay: Bleomycin-induced pulmonary fibrosis mice, Example 31, Table 56; format: in vivo, mouse; conditions: untreated = 100%
Description: as §1
The table below quantitatively presents the evaluation results for each item in mice with bleomycin-induced pulmonary fibrosis, untreated and treated with the test compound.

`COC(=O)[C@]12CCC(C)(C)C[C@H]1[C@H]1C(=O)C[C@@H]3[C@@]4(C)C=C(C#N)C(=O)C(C)(C)[C@@H]4CC[C@@]3(C)[C@]1(C)CC2` [LX-2301] was tested, and the wound/damage healing improvement [1] was “damage treatment and recovery”.
In the case of `CC1(C)CC[C@]2(C(=O)NCC(F)(F)F)CC[C@]3(C)[C@H](C(=O)C[C@@H]4[C@@]5(C)C=C(C#N)C(=O)C(C)(C)[C@@H]5CC[C@]43C)[C@@H]2C1` [LX-2302, Dihydro-CDDO-Trifluoroethyl Amide], the wound/damage healing improvement [1] was “damage treatment and recovery”.
With `CC1(C)CC[C@]2(NS(C)(=O)=O)CC[C@]3(C)[C@H](C(=O)C[C@@H]4[C@@]5(C)C=C(C#N)C(=O)C(C)(C)[C@@H]5CC[C@]43C)[C@@H]2C1` [LX-2306] the wound/damage healing improvement [1] was “damage treatment and recovery”.
In the case of `COC(=O)C[C@]12CCC(C)(C)C[C@H]1[C@H]1C(=O)C[C@@H]3[C@@]4(C)C=C(C#N)C(=O)C(C)(C)[C@@H]4CC[C@@]3(C)[C@]1(C)CC2` [LX-2307], the wound/damage healing improvement [1] was “damage treatment and recovery”.
With `C[C@]12C=C(C#N)C(=O)C3(CC=CC3)C1=CC[C@@H]1[C@@H]2CC[C@]2(C)C(=O)CC[C@@H]12` [LX-2308] the wound/damage healing improvement [1] was “damage treatment and recovery”.
With `CC1(C)CC[C@]2(C(=O)NO)CC[C@]3(C)[C@H](C(=O)C[C@@H]4[C@@]5(C)C=C(C#N)C(=O)C(C)(C)[C@@H]5CC[C@]43C)[C@@H]2C1` [LX-2309] the wound/damage healing improvement [1] was “damage treatment and recovery”.
In the case of `CONC(=O)[C@]12CCC(C)(C)C[C@H]1[C@H]1C(=O)C=C3[C@@]4(C)C=C(C#N)C(=O)C(C)(C)[C@@H]4CC[C@@]3(C)[C@]1(C)CC2` [LX-2310], the wound/damage healing improvement [1] was “damage treatment and recovery”.
For `C=C(C)[C@@H]1CC[C@]2(C(=O)NCC)CC[C@]3(C)[C@H](CCC4[C@@]5(C)C=C(C#N)C(=O)C(C)(C)[C@@H]5CC[C@]43C)[C@@H]12` (some centres unmarked) [LX-2311], the wound/damage healing improvement [1] was “damage treatment and recovery”.
For `C[C@@H]1C(=O)C(C#N)=C[C@]2(C)c3nn(C)c(-c4ccccc4)c3CC[C@@H]12` [LX-2312], the wound/damage healing improvement [1] was “damage treatment and recovery”.
`COc1nc(-c2cccnc2)nc2c1CC[C@H]1[C@H](C)C(=O)C(C#N)=C[C@]21C` [LX-2315] was tested, and the wound/damage healing improvement [1] was “damage treatment and recovery”.
`COC(=O)[C@]12CCC(C)(C)C[C@H]1[C@H]1C(=O)C=C3[C@@]4(C)C=C(C#N)C(=O)[C@@H](C)[C@@H]4CC[C@@]3(C)[C@]1(C)CC2` [LX-2316] was tested, and the wound/damage healing improvement [1] was “damage treatment and recovery”.
For `C[C@@H]1C(=O)C(C#N)=C[C@]2(C)C3=CC(=O)[C@@H]4[C@@H]5CC(C)(C)CC[C@]5(CO)CC[C@@]4(C)[C@]3(C)CC[C@@H]12` [LX-2317], the wound/damage healing improvement [1] was “damage treatment and recovery”.
With `CC1(C)CC[C@]2(CO)CC[C@]3(C)[C@H](C(=O)C=C4[C@@]5(C)[C@H]6O[C@@]6(C#N)C(=O)C(C)(C)[C@@H]5CC[C@]43C)[C@@H]2C1` [LX-2318] the wound/damage healing improvement [1] was “damage treatment and recovery”.
With `C[C@@H]1C(=O)[C@]2(C#N)O[C@@H]2[C@]2(C)C3=CC(=O)[C@@H]4[C@@H]5CC(C)(C)CC[C@]5(NC(=O)C(C)(F)F)CC[C@@]4(C)[C@]3(C)CC[C@@H]12` [LX-2319] the wound/damage healing improvement [1] was “damage treatment and recovery”.
For `Cc1noc([C@]23CCC(C)(C)C[C@H]2[C@H]2C(=O)C=C4[C@@]5(C)C=C(C#N)C(=O)C(C)(C)[C@@H]5CC[C@@]4(C)[C@]2(C)CC3)n1` [LX-2401], the wound/damage healing improvement [1] was “damage treatment and recovery”.
With `CCNC(=O)CC[C@]12CCC(C)(C)C[C@H]1[C@H]1C(=O)C=C3[C@@]4(C)C=C(C#N)C(=O)C(C)(C)[C@@H]4CC[C@@]3(C)[C@]1(C)CC2` [LX-2402] the wound/damage healing improvement [1] was “damage treatment and recovery”.
For `CNC(=O)CC[C@]12CCC(C)(C)C[C@H]1[C@H]1C(=O)C=C3[C@@]4(C)C=C(C#N)C(=O)C(C)(C)[C@@H]4CC[C@@]3(C)[C@]1(C)CC2` [LX-2403], the wound/damage healing improvement [1] was “damage treatment and recovery”.
With `CC1(C)CC[C@]2(CO)CC[C@@]3(C)[C@]4(C)CC[C@H]5C(C)(C)C(=O)C(C#N)=C[C@]5(C)C4=CC(=O)[C@]3(O)C2C1` (some centres unmarked) [LX-2405] the wound/damage healing improvement [1] was “damage treatment and recovery”.
In the case of `CC1(C)CC[C@]2(C(N)=O)CC[C@@]3(C)[C@]4(C)CC[C@H]5C(C)(C)C(=O)C(C#N)=C[C@]5(C)C4=CC(=O)[C@]3(O)[C@@H]2C1` [LX-2406], the wound/damage healing improvement [1] was “damage treatment and recovery”.
With `C[C@@H]1C(=O)C(C#N)=C[C@]2(c3ccccc3)c3c(c(-c4cccnc4)nn3C)CC[C@@H]12` [LX-2407, (5aS,6S,9aR)-1,6-dimethyl-7-oxo-9a-phenyl-3-(pyridin-3-yl)-4,5,5a,6,7,9a-hexahydro-1H-benzo[g]indazole-8-carbonitrile] the wound/damage healing improvement [1] was “damage treatment and recovery”.
In the case of `C[C@@H](Nc1nc(N[C@H](C)C(F)(F)F)nc(-c2cccc(Cl)n2)n1)C(F)(F)F` [LX-8726, Vorasidenib], the “Liver p16 mRNA” value [2] was 36 (±4.3) %, the “Col1a1 mRNA” value [2] was 48 (±4.3) % and the “Femur Ctsk mRNA” value [3] was 25%. The “Heart Sur2a mRNA” value [3] was 2.9 fold, the “Joint Col2a1 mRNA” value [3] was 2.4 fold and the “Kidney Agtr1a mRNA” value [3] was 48%. The “Liver IL6 mRNA” value [3] was 25%, the “Liver MMP3 mRNA” value [3] was 64% and the “Liver p16 mRNA” value [3] was 61%. For the same compound, the “Open Field Test Time in Center” value [3] was 276%, the “Skin Col1a1 mRNA” value [3] was 2.8 Fold and the “Skin SDF1 mRNA” value [3] was 2.7 fold. The “Muscle Mass” value [3] was 0.81 g, the “Fat Mass” value [3] was 1.20 g and the Cataract incidence [3] was 43%. It also gave a viability at 1.1 µM [4] of 71.7%, a viability at 10 µM [4] of 17.5% and a viability at 1.1 µM [5] of 52.3%. For the same compound, the “Lung p16 mRNA” value [6] was 42 (±2.9) % and the “Col1a1 mRNA” value [6] was 58 (±5.3) %.
With `Cn1cc(C[C@@H](N)C(=O)O)c2ccccc21` [LX-8801, Indoximod] the “Liver p16 mRNA” value [2] was 49 (±4.3) %, the “Col1a1 mRNA” value [2] was 53 (±3.5) % and the “Femur Ctsk mRNA” value [3] was 35%. The “Heart Sur2a mRNA” value [3] was 2.9 fold, the “Joint Col2a1 mRNA” value [3] was 1.7 fold and the “Kidney Agtr1a mRNA” value [3] was 72%. For the same compound, the “Liver IL6 mRNA” value [3] was 33%, the “Liver MMP3 mRNA” value [3] was 63% and the “Liver p16 mRNA” value [3] was 54%. For the same compound, the “Open Field Test Time in Center” value [3] was 205%, the “Skin Col1a1 mRNA” value [3] was 2.1 Fold and the “Skin SDF1 mRNA” value [3] was 2.6 fold. The “Muscle Mass” value [3] was 0.69 g, the “Fat Mass” value [3] was 0.94 g and the Cataract incidence [3] was 59%. It also gave a viability at 1.1 µM [4] of 62.5%, a viability at 10 µM [4] of 8.4% and a viability at 1.1 µM [5] of 69.1%. For the same compound, the viability at 10 µM [5] was 1.2%, the “Lung p16 mRNA” value [6] was 44 (±3.0) % and the “Col1a1 mRNA” value [6] was 67 (±4.5) %.
For `C[C@@H](C(=O)Nc1ccc(Cl)cc1)[C@H]1CC[C@@H](c2ccnc3ccc(F)cc32)CC1` [LX-8805, Linrodostat], the “Liver p16 mRNA” value [2] was 60 (±3.9) %, the “Col1a1 mRNA” value [2] was 36 (±3.4) % and the “Femur Ctsk mRNA” value [3] was 58%. For the same compound, the “Heart Sur2a mRNA” value [3] was 2.6 fold, the “Joint Col2a1 mRNA” value [3] was 2.6 fold and the “Kidney Agtr1a mRNA” value [3] was 55%. For the same compound, the “Liver IL6 mRNA” value [3] was 25%, the “Liver MMP3 mRNA” value [3] was 67% and the “Liver p16 mRNA” value [3] was 47%. For the same compound, the “Open Field Test Time in Center” value [3] was 217%, the “Skin Col1a1 mRNA” value [3] was 1.7 Fold and the “Skin SDF1 mRNA” value [3] was 1.9 fold. The “Muscle Mass” value [3] was 0.72 g, the “Fat Mass” value [3] was 0.87 g and the Cataract incidence [3] was 68%. For the same compound, the viability at 1.1 µM [4] was 103%, the viability at 10 µM [4] was 58.3% and the viability at 30 µM [4] was 32.8%. For the same compound, the viability at 1.1 µM [5] was 99.1%, the viability at 10 µM [5] was 42.1% and the viability at 30 µM [5] was 21.8%. The “Lung p16 mRNA” value [6] was 40 (±2.1) % and the “Col1a1 mRNA” value [6] was 70 (±4.6) %.
`Nc1ccc(/C=C/C(=O)NCc2cc3cc(-c4ccc(C(=O)N5CCC(F)(F)CC5)cc4)cc(-c4ccc(F)cc4)c3o2)cn1` [LX-8812, Padnarsertib] was tested, and the “Liver p16 mRNA” value [2] was 63 (±3.9) %, the “Col1a1 mRNA” value [2] was 64 (±3.1) % and the “Femur Ctsk mRNA” value [3] was 62%. The “Heart Sur2a mRNA” value [3] was 2.0 fold, the “Joint Col2a1 mRNA” value [3] was 2.6 fold and the “Kidney Agtr1a mRNA” value [3] was 51%. For the same compound, the “Liver IL6 mRNA” value [3] was 53%, the “Liver MMP3 mRNA” value [3] was 42% and the “Liver p16 mRNA” value [3] was 59%. The “Open Field Test Time in Center” value [3] was 188%, the “Skin Col1a1 mRNA” value [3] was 3.4 Fold and the “Skin SDF1 mRNA” value [3] was 2.9 fold. For the same compound, the “Muscle Mass” value [3] was 0.70 g, the “Fat Mass” value [3] was 0.96 g and the Cataract incidence [3] was 54%. It also gave a viability at 1.1 µM [4] of 100%, a viability at 10 µM [4] of 61.6% and a viability at 30 µM [4] of 24.9%. The viability at 1.1 µM [5] was 94.6%, the viability at 10 µM [5] was 49.3% and the viability at 30 µM [5] was 29.2%. For the same compound, the “Lung p16 mRNA” value [6] was 67 (±5.6) % and the “Col1a1 mRNA” value [6] was 77 (±6.2) %.
